Values joined by “and” are separate entries in the source; they are usually repeats but may differ in a detail not shown here. Identical values can stand only once.

In the experiment the target is T1, Apelin receptor (Homo sapiens, UniProt P35414).
T1 sequence (P35414 whole entry): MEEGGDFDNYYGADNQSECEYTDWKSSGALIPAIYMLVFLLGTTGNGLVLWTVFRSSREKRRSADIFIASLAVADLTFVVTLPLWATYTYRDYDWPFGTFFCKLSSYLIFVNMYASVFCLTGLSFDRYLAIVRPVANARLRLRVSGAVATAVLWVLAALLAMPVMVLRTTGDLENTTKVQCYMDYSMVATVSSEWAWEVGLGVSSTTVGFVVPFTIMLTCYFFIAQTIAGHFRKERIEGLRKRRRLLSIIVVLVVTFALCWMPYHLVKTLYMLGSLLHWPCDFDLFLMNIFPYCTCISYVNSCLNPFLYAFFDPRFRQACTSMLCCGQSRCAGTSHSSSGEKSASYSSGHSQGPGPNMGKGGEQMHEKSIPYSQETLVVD
Put plainly: GTPγS Binding: The human APJ receptor was cloned by polymerase chain reaction and the gene encoding the receptor was subcloned in pFLAG-CMV-3 expression vector (Sigma, Saint Louis, Mo. USA) in-house at Amgen. A GTPγS binding assay was performed on membranes prepared from CHO cells stably expressing human APJ receptor. The optimum experimental conditions for the concentrations of GDP, MgCl2, and NaCl in the assay buffer were initially determined. The assay was performed in assay buffer [20 mM HEPES, pH 7.5, 5 mM MgCl2, and 0.1% (w/v) BSA with 200 mM NaCl, 3 μM GDP] and membranes expressing human APJ receptor/well along with WGA PS beads. The reaction was initiated by addition of 0.2 nM [35S]GTPγS in the absence or presence of various ligands and incubated at RT for 90 min. Nonspecific binding was determined in the presence of 100 μM GTPγS and was always less than 0.2% of total binding. On the technique in general: Binding of GTPγS marks nucleotide exchange on a G protein.
In general, EC50 refers to the concentration that produces a half-maximal response. In the case of `COc1cccc(OC)c1-n1c(NS(=O)(=O)CCc2ccc(F)cn2)nnc1-c1ccco1`, the EC50 was found to be 12 nM.

As to `COc1cccc(OC)c1-n1c(NS(=O)(=O)[C@@H](C)[C@@H](O)c2cccc3ccnn23)nnc1-c1ccc(C)o1`, the EC50 was 0.79 nM and 0.87 nM. With `COc1cccc(OC)c1-n1c(NS(=O)(=O)CCc2ncc(F)cn2)nnc1-c1ccco1` the figure was 3.2 nM. As for `COc1cccc(OC)c1-n1c(NS(=O)(=O)CCc2ncc(Cl)cc2C2=CCN(C(C)=O)CC2)nnc1-c1ccco1`, the figure is 0.32 nM. With `COCn1cnc2c(C[C@H](C)S(=O)(=O)Nc3nnc(-c4ccco4)n3-c3c(OC)cccc3OC)ncc(F)c21` (mixture of isomers) the figure was 0.77 nM; with `COc1cccc(OC)c1-n1c(NS(=O)(=O)[C@H](C)[C@@H](O)c2cc3ccccn3n2)nnc1-c1ccc(C)o1` (mixture of isomers), 0.65 nM; with `COc1cccc(OC)c1-n1c(NS(=O)(=O)[C@H](C)[C@H](O)c2cscn2)nnc1-c1ccc(C)o1` (mixture of isomers), 16 nM.

For `COc1cccc(OC)c1-n1c(NS(=O)(=O)[C@@H]2C[C@@H](C(=O)N3CCC3)CN(c3ncc(F)cn3)C2)nnc1-c1ccc(C)o1` (mixture of isomers), the 50% effective concentration (EC50) came to 0.32 nM. With `COc1cccc(OC)c1-n1c(NS(=O)(=O)[C@@H](C)Cc2ncc(F)cc2N2C[C@H](O)CC2=O)nnc1-c1ccco1` (mixture of isomers) the figure was 0.61 nM; with `COc1cccc(OC)c1-n1c(NS(=O)(=O)C[C@H](O)c2ccc(F)cn2)nnc1-c1ccc(C)o1` (mixture of isomers), 0.17 nM. As to `COc1cccc(OC)c1-n1c(NS(=O)(=O)[C@H](C)Cc2ncc(F)cn2)nnc1-c1ccco1` (mixture of isomers), the concentration for a half-maximal effect (EC50) was 0.29 nM. On to `COc1cccc(OC)c1-n1c(NS(=O)(=O)[C@H]2C[C@@H](C(=O)N3CCC3)CN(c3ncc(F)cn3)C2)nnc1-c1ccc(C)o1` (mixture of isomers), for which the EC50 was 0.35 nM. As for `COc1cccc(OC)c1-n1c(NS(=O)(=O)[C@@H](C)[C@H](OC)c2ccc(C#N)cc2C#N)nnc1-c1ccc(C)o1` (mixture of isomers), the 50% effective concentration (EC50) stood at 0.21 nM. With `COc1cccc(OC)c1-n1c(NS(=O)(=O)[C@H]2CCC[C@@H]2c2ncc(F)cn2)nnc1-c1ccc(C)o1` (mixture of isomers), the half-maximal effective concentration (EC50) was found to be 2 nM. In the case of `COc1ncnc(OC)c1-n1c(NS(=O)(=O)[C@@H](C)Cc2ncc(F)cn2)nnc1-c1ccc(C)o1` (mixture of isomers), the half-maximal effective concentration (EC50) was found to be 3 nM. As for `COc1cccc(OC)c1-n1c(NS(=O)(=O)C[C@@](C)(O)c2ncc(C#N)cn2)nnc1-c1ccc(C)o1` (mixture of isomers), the figure is 0.65 nM; as for `COc1cccc(OC)c1-n1c(NS(=O)(=O)[C@@H](C)[C@H](C)c2cnc(C)c[n+]2[O-])nnc1-c1ccc(C)o1` (mixture of isomers), 0.14 nM. Turning to `COc1cccc(OC)c1-n1c(NS(=O)(=O)[C@H](C)[C@@H](O)c2ccnc3c2OCCC3)nnc1-c1ccc(C)o1` (mixture of isomers), the concentration giving a half-maximal response (EC50) worked out at 13 nM.

As for `COc1cccc(OC)c1-n1c(NS(=O)(=O)[C@@H](C)[C@@H](OC)c2cn3ccccc3n2)nnc1-c1ccc(C)o1` (mixture of isomers), the EC50 came out at 0.96 nM. As for `COc1cccc(OC)c1-n1c(NS(=O)(=O)[C@@H](C)[C@H](O)c2cscn2)nnc1-c1ccc(C)o1` (mixture of isomers), the figure is 1.2 nM; as for `Cc1ccc(-c2nnc(NS(=O)(=O)[C@@H](C)Cc3ncc(F)cn3)n2C2CCCC2)o1` (mixture of isomers), 270 nM. With `COc1cnc([C@@H](O)[C@H](C)S(=O)(=O)Nc2nnc(-c3ccc(C)o3)n2-c2c(OC)cccc2OC)cn1` (mixture of isomers) the figure was 0.25 nM.

Turning to `CCc1ccc(-c2nnc(NS(=O)(=O)[C@@H](C)Cc3ncc(F)cn3)n2-c2c(OC)cccc2OC)o1` (mixture of isomers), the EC50 came out at 0.13 nM. As for `COc1cccc(OC)c1-n1c(NS(=O)(=O)[C@@H]2CCCC[C@H]2c2ncc(F)cn2)nnc1-c1ccco1` (single isomer, unassigned), the figure is 30 nM; as for `COc1cccc(OC)c1-n1c(NS(=O)(=O)[C@@H]2C[C@H](c3ccc(F)cc3)CN(C(C)=O)C2)nnc1-c1ccc(C)o1` (single isomer, unassigned), 1.1 nM. As for `COc1cccc(OC)c1-n1c(NS(=O)(=O)[C@H](C)[C@](C)(O)c2ncc(F)cn2)nnc1-c1ccc(C)o1` (single isomer, unassigned), the figure is 0.57 nM. On to `COc1cccc(OC)c1-n1c(NS(=O)(=O)[C@@H]2C[C@@H](c3ccc(F)cc3)CN(C(C)=O)C2)nnc1-c1ccc(C)o1` (single isomer, unassigned), for which the concentration giving a half-maximal response (EC50) is 0.75 nM.

In the case of `COc1cccc(OC)c1-n1c(NS(=O)(=O)[C@@H](C)[C@@H](OCCO)c2ncc(C)cn2)nnc1-c1ccc(C)o1` (single isomer, unassigned), the EC50 worked out at 0.15 nM. As for `COc1cccc(OC)c1-n1c(NS(=O)(=O)C[C@H](O)c2ccc(Cl)cc2S(C)(=O)=O)nnc1-c1ccc(C)o1` (single isomer, unassigned), the figure is 0.09 nM; as for `COc1cccc(OC)c1-n1c(NS(=O)(=O)[C@H]2CCCN(c3ncc(F)cn3)C2)nnc1-c1ccc(C)o1` (single isomer, unassigned), 3.2 nM; as for `COc1cccc(OC)c1-n1c(NS(=O)(=O)[C@@H](C)Cc2ncc(F)c3[nH]cnc23)nnc1-c1ccco1` (single isomer, unassigned), 28 nM. As to `COc1cccc(OC)c1-n1c(NS(=O)(=O)[C@H](C)[C@@H](O)c2cnc(C)cn2)nnc1-c1ccc(C)o1` (single isomer, unassigned), the concentration giving a half-maximal response (EC50) was 1.5 nM.

As to `CCc1cnc([C@@H](C)[C@H](C)S(=O)(=O)Nc2nnc(-c3ccc(C)o3)n2-c2c(OC)cccc2OC)nc1` (single isomer, unassigned), the concentration giving a half-maximal response (EC50) was 3.4 nM.

Take `COc1cccc(OC)c1-n1c(NS(=O)(=O)[C@H]2COC[C@@H]2c2ncc(F)cn2)nnc1-c1ccco1` (single isomer, unassigned): the EC50 is 28 nM. As for `COc1cccc(OC)c1-n1c(NS(=O)(=O)C[C@H](O)c2ccc(F)cn2)nnc1-c1ccc(C)o1` (single isomer, unassigned), the figure is 0.29 nM; as for `COc1cccc(OC)c1-n1c(NS(=O)(=O)[C@@H](C)[C@@H](O)c2ncn3ccccc23)nnc1-c1ccc(C)o1` (single isomer, unassigned), 1.4 nM; as for `COC[C@@H]1CCCC(=O)N1CCS(=O)(=O)Nc1nnc(-c2ccco2)n1-c1c(OC)cccc1OC` (single isomer, unassigned), 2.1 nM. Regarding `COC[C@H]1CCCC(=O)N1C[C@@H](C)S(=O)(=O)Nc1nnc(-c2ccc(C)o2)n1-c1c(OC)cccc1OC` (single isomer, unassigned), the concentration for a half-maximal effect (EC50) is 0.48 nM.

Turning to `COc1cccc(OC)c1-n1c(NS(=O)(=O)[C@@H](C)[C@@H](O)c2coc(C)n2)nnc1-c1ccc(C)o1` (single isomer, unassigned), the EC50 worked out at 8.3 nM.

Consider `COc1cccc(OC)c1-n1c(NS(=O)(=O)CCN2C(=O)CCC[C@@H]2C)nnc1-c1ccco1` (single isomer, unassigned), for which the half-maximal effective concentration (EC50) came out at 1 nM. As for `COc1cccc(OC)c1-n1c(NS(=O)(=O)[C@@H]2CCC[C@H]2c2ncc(F)cn2)nnc1-c1ccc(C)o1` (single isomer, unassigned), the EC50 worked out at 2.8 nM. With `COc1cccc(OC)c1-n1c(NS(=O)(=O)C[C@@H](C)c2ncc(C)cn2)nnc1-c1ccco1` (single isomer, unassigned) the figure was 6.7 nM; with `COc1cccc(OC)c1-n1c(NS(=O)(=O)[C@@H](C)Cc2ncc(Br)cn2)nnc1-c1ccco1` (single isomer, unassigned), 0.31 nM; with `COc1cccc(OC)c1-n1c(NS(=O)(=O)[C@H](C)Cc2ncc(F)cc2NC(C)=O)nnc1-c1ccco1` (single isomer, unassigned), 0.21 nM. As for `COc1cccc(OC)c1-n1c(NS(=O)(=O)[C@@H](C)[C@@H](O)c2ncc(F)cn2)nnc1-c1ccc(C)o1` (single isomer, unassigned), the figure is 0.32 nM.

As to `COc1cccc(OC)c1-n1c(NS(=O)(=O)[C@@H](C)[C@H](O)c2cc3n(n2)CCCO3)nnc1-c1ccc(C)o1` (single isomer, unassigned), the 50% effective concentration (EC50) came to 1.2 nM. As for `COc1cccc(OC)c1-n1c(NS(=O)(=O)[C@@H](C)[C@@H](O)c2cnc3ccccn23)nnc1-c1ccc(C)o1` (single isomer, unassigned), the figure is 0.96 nM. As to `COc1cccc(OC)c1-n1c(NS(=O)(=O)[C@@H](C)[C@H](O)c2cc3ccccn3n2)nnc1-c1ccc(C)o1` (single isomer, unassigned), the EC50 was 3.7 nM. With `COc1cccc(OC)c1-n1c(NS(=O)(=O)[C@H]2CCCC[C@H]2c2ncc(F)cn2)nnc1-c1ccco1` (single isomer, unassigned) the figure was 4.5 nM; with `COc1cccc(OC)c1-n1c(NS(=O)(=O)[C@@H](C)[C@@H](O)c2cn3ccccc3n2)nnc1-c1ccc(C)o1` (single isomer, unassigned), 1 nM; with `COc1cccc(OC)c1-n1c(NS(=O)(=O)CCN2C(=O)N(C)CC[C@H]2C)nnc1-c1ccco1` (single isomer, unassigned), 0.7 nM. As for `COc1cccc(OC)c1-n1c(NS(=O)(=O)[C@@H](C)Cc2ncc(F)c3c2ncn3C)nnc1-c1ccco1` (single isomer, unassigned), the figure is 0.98 nM.

Source of the values: ChEMBL document CHEMBL5727878, “Triazole furan compounds as agonists of the APJ receptor” (2020).
